Measurements: patent publication US8563546B2, “Heterocyclic nitrogenous or oxygenous compounds with insecticidal activity formed from dialdehydes and their preparation and uses thereof” (East China University of Science and Technology, priority 2008, dated 2013)
Where two headings read alike, the source gives them in different places.

Columns and labels:
Type in all cases: in vivo
[1] = system: Pseudaletia Separate Walker; test: Activity test for armyworm, feeding immersed maize leaves; conditions: for mortality at 500 ppm: read-out: Armyworm Mortality (100%) 500 ppm
Procedure: (3) Activity Test for Armyworm (Pseudaletia Separate Walker)
Armyworm was tested by the way of feeding immersed leaves. The test compound was exactly formulated into a solution of acetone to concentration 500, 250, 100, 50, 25, 12.5, 6.25, 3.13 and 1.57 ppm. The acetone aqueous solution was used as control. Fresh maize leaves were immersed in the solution for 3 seconds and dried at room temperature and used to feed the tested insects. Each process was repeated for 3 times while 10 Armyworms were tested in each experiment. The number of killed Armyworms was counted after 24 hours to calculate the mortality using above mentioned formula.

Nilaparvata lugens = test: Activity test for planthopper, spraying; conditions: for mortality at 500 ppm: Nilaparvata lugens, read-out: Planthopper Mortality (100%) 500 ppm
Procedure: (2) Activity Test for Planthopper (Nilaparvata lugens)
Planthopper, which belongs to Homoptera and has a piercing-sucking mouthpart, is a common insect for agricultural plant. Nilaparvata lugens was tested by the way of spraying.
Test method: the test compound was exactly formulated into a solution of acetone to final concentration of 500, 250, 100, 50, 25, 12.5, 6.25, 3.13, 1.57 and 0.79 ppm. The acetone aqueous solution was used as control. Each process was repeated for 3 tumblers (3 times). 2 mL of solution was sprayed uniformly to each cup by a mini manual sprayer. 10 Nilaparvata lugens were introduced to every sink 6 hours before spraying. Three series of experiments were conducted. The number of killed Nilaparvata lugens was counted after 24 hours to calculate the mortality using above mentioned formula.

Plutella Xylostella = test: Activity test for diamondback moth, feeding immersed cabbage leaves; conditions: for mortality at 500 ppm: Plutella xylostella, read-out: Diamondback moth Mortality (100%) 500 ppm
Procedure: (4) Activity Test for Diamondback Moth (Plutella Xylostella)
Diamondback moth was tested by the way of feeding immersed leaves. Fresh cabbage leaves were immersed in above mentioned solution for 3 seconds and dried at room temperature and used to feed to the tested insects. Each process was repeated for 3 tumblers (3 times) while 10 Diamondback moths were tested in each experiment, while water was used as control. The number of killed Diamondback moth was counted after 24 hours to calculate the mortality using above mentioned formula.

Aphis craccivoral = test: Activity test for cowpea aphids, immersing; conditions: for mortality at 500 ppm: Aphis, read-out: Cowpea Aphids Mortality (100%) 500 ppm
Procedure: (1) Activity Test for Cowpea Aphids (Aphis Craccivoral)
Aphis, which belongs to Homoptera and has a piercing-sucking mouthpart, is a common insect for agricultural plant. Aphis craccivoral was tested by the way of immersing.
Test method: exactly weighed various samples were independently added to N,N-dimethylformamide to form a 10 g/L stock solution. The mixture was diluted with 0.2 mL/L aqueous Triton X-100 solution to a concentration of 500 ppm After stably sucking on bean sprout, the adult aphis without wings together with bean sprout was dipped into 500 ppm dilution, taken out after 5 seconds, and the excess dilution was sucked out with bibulous paper and the adult aphis without wings was incubated in clean vessel at a constant temperature of 23° C. Each concentration was repeated for 3 times and the control group contained 0.2 mL/L aqueous Triton X-100 solution. The number of killed aphis was counted after 24 hours to calculate the mortality by the following formula: mortality(%)=(control alive aphis−treated alive aphis)/control alive aphis×100%.

[2] = 500 ppm, immersed maize leaves, counted after 24 hours
[3] = 500 ppm, spraying, counted after 24 hours
[4] = 500 ppm, immersed cabbage leaves, counted after 24 hours
[5] = 500 ppm, dipped 5 seconds, counted after 24 hours, 23° C.

Compound: 1-((6-chloropyridin-3-yl)methyl)-5-(1-((6-chloropyridin-3-yl) methyl)-1,4,5,6-tetrahydropyrimidin-2-yl)-1,5-dinitropenta-1,4-dienyl)-1,4,5,6-tetrahydropyrimidine [Compound 43]
- Armyworm Mortality (100%) 500 ppm [1, 2]: 100%
- Planthopper Mortality (100%) 500 ppm (Nilaparvata lugens; [3]): 87%
- Diamondback moth Mortality (100%) 500 ppm (Plutella Xylostella; [4]): 96%
- Cowpea Aphids Mortality (100%) 500 ppm (Aphis craccivoral; [5]): 78%

Compound: O=[N+]([O-])/C(=C1/NCCN1Cc1ccc(Cl)nc1)C(O)/C=C(\C1=NCCN1Cc1ccc(Cl)nc1)[N+](=O)[O-] (stereo not shown) [Compound 13, 4-(1-((6-chloropyridin-3-yl)methyl)-4,5-dihydro-1H-imidazol-2-yl)-1-(1-((6-chloropyridin-3-yl)methyl)imidazolidin-2-ylidene)-1,4-dinitrobut-3-en-2-ol]
- mortality at 500 ppm ([1]; 24 h): 100%
- mortality at 500 ppm (Nilaparvata lugens; 24 h): 85%
- mortality at 500 ppm (Plutella Xylostella; 24 h): 100%
- mortality at 500 ppm (Aphis craccivoral; 24 h): 78%

Compound: COC(/C=C(\C1=NCCN1Cc1ccc(Cl)nc1)[N+](=O)[O-])/C(=C1\NCCN1Cc1ccc(Cl)nc1)[N+](=O)[O-] (stereo not shown) [Compound 14]
- mortality at 500 ppm ([1]; 24 h): 100%
- mortality at 500 ppm (Nilaparvata lugens; 24 h): 100%
- mortality at 500 ppm (Plutella Xylostella; 24 h): 100%
- mortality at 500 ppm (Aphis craccivoral; 24 h): 100%

Compound: CCN(Cc1ccc(Cl)nc1)C(=N\C)/C(=C\C/C=C(\C(=N\C)N(CC)Cc1ccc(Cl)nc1)[N+](=O)[O-])[N+](=O)[O-] [Compound 37, N^1,N^7-bis((6-chloropyridin-3-yl)methyl)-N^1,N^7-diethyl-N^1′, N^7′-dimethyl-2,6-dinitrohepta-2,5-dienediamidine]
- mortality at 500 ppm ([1]; 24 h): 100%
- mortality at 500 ppm (Nilaparvata lugens; 24 h): 100%
- mortality at 500 ppm (Plutella Xylostella; 24 h): 100%
- mortality at 500 ppm (Aphis craccivoral; 24 h): 100%

Compound: O=[N+]([O-])/C(=C/C/C=C(\C1=NCCN1Cc1ccc(Cl)nc1)[N+](=O)[O-])C1=NCCN1Cc1ccc(Cl)nc1 [Compound 39]
- mortality at 500 ppm ([1]; 24 h): 100%
- mortality at 500 ppm (Nilaparvata lugens; 24 h): 100%
- mortality at 500 ppm (Plutella Xylostella; 24 h): 100%
- mortality at 500 ppm (Aphis craccivoral; 24 h): 100%

Compound: O=[N+]([O-])/C(=C/C/C=C(\C1=NCCN1Cc1cnc(Cl)s1)[N+](=O)[O-])C1=NCCN1Cc1cnc(Cl)s1 [Compound 41]
- mortality at 500 ppm ([1]; 24 h): 100%
- mortality at 500 ppm (Nilaparvata lugens; 24 h): 100%
- mortality at 500 ppm (Plutella Xylostella; 24 h): 100%
- mortality at 500 ppm (Aphis craccivoral; 24 h): 100%

Compound: CCN(Cc1ccc(Cl)nc1)C1=C([N+](=O)[O-])C2CCC(O2)N1C (stereo not shown) [Compound 46, N-((6-chloropyridin-3-yl)methyl)-N-ethyl-2-methyl-4-nitro-8-oxa-2-aza-bicyclo[3.2.1]oct-3-en-3-amine]
- mortality at 500 ppm [1, 2]: 100%
- mortality at 500 ppm (Nilaparvata lugens; [3]): 100%
- mortality at 500 ppm (Plutella Xylostella; [4]): 100%
- mortality at 500 ppm (Aphis craccivoral; [5]): 100%

Compound: O=[N+]([O-])C1=C2N(Cc3ccc(Cl)nc3)CCN2C2CCC1O2 (stereo not shown) [Compound 52, 1-((6-chloropyridin-3-yl)methyl)-9-nitro-2,3,5,6,7,8-hexahydro-1H-5,8-epoxyimidazo[1,2-a]azepine]
- mortality at 500 ppm [1, 2]: 100%
- mortality at 500 ppm (Nilaparvata lugens; [3]): 100%
- mortality at 500 ppm (Plutella Xylostella; [4]): 100%
- mortality at 500 ppm (Aphis craccivoral; [5]): 100%

Compound: O=[N+]([O-])C1=C2N(Cc3cnc(Cl)s3)CCN2C2CCC1O2 (stereo not shown) [Compound 53, 1-((2-chlorothiazol-5-yl)methyl)-9-nitro-2,3,5,6,7,8-hexahydro-1H-5,8-epoxyimidazo[1,2-a]azepine]
- mortality at 500 ppm [1, 2]: 100%
- mortality at 500 ppm (Nilaparvata lugens; [3]): 100%
- mortality at 500 ppm (Plutella Xylostella; [4]): 100%
- mortality at 500 ppm (Aphis craccivoral; [5]): 100%

Compound: O=[N+]([O-])C1=C2N(Cc3ccc(Cl)nc3)CCCN2C2CCC1O2 (stereo not shown) [Compound 61, 1-((6-chloropyridin-3-yl)methyl)-10-nitro-1,2,3,4,6,7,8,9-octahydro-6,9-epoxypyrimido[1,2-a]azepine]
- mortality at 500 ppm [1, 2]: 76%
- mortality at 500 ppm (Nilaparvata lugens; [3]): 75%
- mortality at 500 ppm (Plutella Xylostella; [4]): 35%
- mortality at 500 ppm (Aphis craccivoral; [5]): 65%

Compound: N#CC1=C2N(Cc3ccc(Cl)nc3)CCN2C2CCC1O2 (stereo not shown) [Compound 64, 1-((6-chloropyridin-3-yl)methyl)-2,3,5,6,7,8-hexahydro-1H-5,8-epoxyimidazo[1,2-a]azepine-9-carbonitrile]
- mortality at 500 ppm [1, 2]: 100%
- mortality at 500 ppm (Nilaparvata lugens; [3]): 56%
- mortality at 500 ppm (Plutella Xylostella; [4]): 100%
- mortality at 500 ppm (Aphis craccivoral; [5]): 96%

Compound: O=[N+]([O-])C1=C2N(Cc3ccc(Cl)nc3)CCN2C2CCCC1O2 (stereo not shown) [Compound 77, 1-((6-chloropyridin-3-yl)methyl)-10-nitro-1,2,3,5,6,7,8,9-octahydro-5,9-epoxyimidazo[1,2-a]azocine]
- mortality at 500 ppm [1, 2]: 100%
- mortality at 500 ppm (Nilaparvata lugens; [3]): 100%
- mortality at 500 ppm (Plutella Xylostella; [4]): 100%
- mortality at 500 ppm (Aphis craccivoral; [5]): 100%

Compound: O=[N+]([O-])C1=C2N(CC3CCOC3)CCN2C2CCCC1O2 (stereo not shown) [Compound 80, 10-nitro-1-((tetrahydrofuran-3-yl)methyl)-1,2,3,5,6,7,8,9-octahydro-5,9-epoxyimidazo[1,2-a]azocine]
- mortality at 500 ppm ([1]; 24 h): 100%
- mortality at 500 ppm (Nilaparvata lugens; 24 h): 100%
- mortality at 500 ppm (Plutella Xylostella; [4]): 100%
- mortality at 500 ppm (Aphis craccivoral; 24 h): 100%
